In patent US20250230193A1, “CYCLIC COMPOUND HAVING SELECTIVE KRAS INHIBITORY EFFECT ON HRAS AND NRAS” (CHUGAI SEIYAKU KABUSHIKI KAISHA, priority 2022, published 2025):
Where a SMILES comes first, the peptide text is derived from it. Bridges are numbered along the chain shown (N, C = ends). [ ]: non-standard residue; d: D form. hPhe(3-Cl-4-CF3) = N[C@@H](CCc1ccc(C(F)(F)F)c(Cl)c1)C(=O)O; NPrPhe(4-CF3) = CCCN[C@@H](Cc1ccc(C(F)(F)F)cc1)C(=O)O; NMeGly(cPent) = CN[C@H](C(=O)O)C1CCCC1; Pro(4,4-F2) = O=C(O)[C@@H]1CC(F)(F)CN1; NMeD = CN[C@@H](CC(=O)O)C(=O)O; NMeL = CN[C@@H](CC(C)C)C(=O)O; Aze = O=C(O)[C@@H]1CCN1; Ac4c = NC1(C(=O)O)CCC1; NEtG = CCNCC(=O)O; Sar = CNCC(=O)O

Assays:
[1] = biological target: GDP-bound NRAS wild-type protein (Homo sapiens, UniProt P01111); experiment: Binding to NRAS by surface plasmon resonance (SPR), Single Cycle Kinetics; conditions: for NRAS/KRAS (ratio of KD value with respect to NRAS to KD value with respect to KRAS): GDP-bound NRAS wild-type vs GDP-bound KRAS wild-type
[2] = biological target: GDP-bound HRAS wild-type protein (Homo sapiens, UniProt P01112); experiment: Binding to HRAS by surface plasmon resonance (SPR), Single Cycle Kinetics; conditions: for HRAS/KRAS (ratio of KD value with respect to HRAS to KD value with respect to KRAS): GDP-bound HRAS wild-type vs GDP-bound KRAS wild-type
[3] = SPR, GDP-bound wild-type proteins

Sequence of GDP-bound NRAS wild-type protein (P01111 whole entry): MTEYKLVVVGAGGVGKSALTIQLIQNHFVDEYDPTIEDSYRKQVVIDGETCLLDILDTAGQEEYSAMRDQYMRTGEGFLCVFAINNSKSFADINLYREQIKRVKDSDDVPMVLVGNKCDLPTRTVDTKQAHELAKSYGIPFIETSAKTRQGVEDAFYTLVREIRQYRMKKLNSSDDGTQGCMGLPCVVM
Sequence of GDP-bound HRAS wild-type protein (P01112 whole entry): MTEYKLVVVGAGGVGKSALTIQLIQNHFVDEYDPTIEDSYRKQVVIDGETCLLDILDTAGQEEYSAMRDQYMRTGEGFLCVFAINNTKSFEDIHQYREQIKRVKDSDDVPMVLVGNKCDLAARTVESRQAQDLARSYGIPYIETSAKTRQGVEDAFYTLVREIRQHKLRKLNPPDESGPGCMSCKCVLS

Row | SMILES | NRAS/KRAS (ratio of KD value with respect to NRAS to KD value with respect to KRAS) ([1]; KD ratio, SPR) | HRAS/KRAS (ratio of KD value with respect to HRAS to KD value with respect to KRAS) ([2]; KD ratio, SPR) | also measured
1 | CCO[C@@H]1C[C@H]2C(=O)NC3(CCC3)C(=O)N(C)[C@@H](C3CCCC3)C(=O)N(C)[C@H](C(=O)N3CCOCC3)CC(=O)N(C)[C@@H](CC(C)C)C(=O)N[C@@H]([C@@H](C)CC)C(=O)N3CC[C@H]3C(=O)N(C)[C@H]3C[C@@H](C)CCN(C3=O)[C@@H](Cc3ccc(C(F)(F)F)cc3)C(=O)N(C)CC(=O)N[C@@H](CCc3cc(F)c(C(F)(F)F)c(F)c3)C(=O)N2C1 [PP1026] | B (a compound having 3 or more and less than 10 is denoted as B) | B (a compound having 3 or more and less than 10 is denoted as B) | –
2 | CC[C@H](C)[C@@H]1NC(=O)[C@H](CC(C)C)N(C)C(=O)C[C@@H](C(=O)N2CCOCC2)N(C)C(=O)[C@H](C2CCCC2)N(C)C(=O)C2(CCCC2)NC(=O)[C@@H]2[C@@H](O)CCN2C(=O)[C@H](CCc2cc(F)c(C(F)(F)F)c(F)c2)NC(=O)CN(C)C(=O)[C@H](Cc2ccc(C(F)(F)F)cc2)N2CCCC[C@@H](C2=O)N(C)C(=O)CN(C)C1=O [PP0558] | – | – | NRAS/KRAS (ratio of KD value with respect to GDP-bound NRAS wild-type protein to KD value with respect to KRAS) ([1]; SPR): B (a compound having 3 or more and less than 10 is denoted as B); HRAS/KRAS (ratio of KD value with respect to GDP-bound HRAS wild-type protein to KD value with respect to KRAS) ([2]; SPR): B (a compound having 3 or more and less than 10 is denoted as B)
3 | CCCN1C(=O)CN(C)C(=O)CN(CC)C(=O)[C@H]([C@@H](C)CC)NC(=O)[C@H](CC(C)C)N(C)C(=O)C[C@@H](C(=O)N(C)C)N(C)C(=O)[C@H](C2CCCC2)N(C)C(=O)C2(CCC2)NC(=O)[C@@H]2CC(F)(F)CN2C(=O)[C@H](CCc2ccc(C(F)(F)F)c(Cl)c2)NC(=O)CN(C)C(=O)[C@@H]1Cc1ccc(C(F)(F)F)cc1 [PP0426] ([NMeL]I[NEtG][Sar][NPrPhe(4-CF3)][Sar][hPhe(3-Cl-4-CF3)][Pro(4,4-F2)][Ac4c][NMeGly(cPent)][NMeD]-NMe2; lactam N-11) | – | – | NRAS/KRAS (ratio of KD value with respect to GDP-bound NRAS wild-type protein to KD value with respect to KRAS) ([1]; SPR): C (A compound having a KD ratio of 0.1 or more and less than 3 is denoted as C); HRAS/KRAS (ratio of KD value with respect to GDP-bound HRAS wild-type protein to KD value with respect to KRAS) ([2]; SPR): C (A compound having a KD ratio of 0.1 or more and less than 3 is denoted as C)
4 | CCO[C@@H]1C[C@H]2C(=O)NC3(CCC3)C(=O)N(C)[C@@H](C3CCCC3)C(=O)N(C)[C@H](C(=O)N3CCOCC3)CC(=O)N(C)[C@@H](CC(C)C)C(=O)N[C@@H]([C@@H](C)CC)C(=O)N(C)CC(=O)N(C)[C@H]3CCCCCN(C3=O)[C@@H](Cc3ccc(F)c(F)c3)C(=O)N(C)CC(=O)N[C@@H](CCc3cc(F)c(C(F)(F)F)c(F)c3)C(=O)N2C1 [PP0917] | B (a compound having 3 or more and less than 10 is denoted as B) | B (a compound having 3 or more and less than 10 is denoted as B) | –
5 | CCO[C@@H]1C[C@H]2C(=O)NC3(CCC3)C(=O)N(C)[C@@H](C3CCCC3)C(=O)N(C)[C@H](C(=O)N(C)C)CC(=O)N(C)[C@@H](Cc3ccc(C#N)cc3)C(=O)N[C@@H]([C@@H](C)CC)C(=O)N(C)CC(=O)N(C)[C@H]3CCCCCN(C3=O)[C@@H](Cc3ccc(F)cc3)C(=O)N(C)CC(=O)N[C@@H](CCc3cc(F)c(C(F)(F)F)c(F)c3)C(=O)N2C1 [PP1157] | B (a compound having 3 or more and less than 10 is denoted as B) | B (a compound having 3 or more and less than 10 is denoted as B) | –
6 | CCCN1C(=O)CN(C)C(=O)[C@@H]2CCN2C(=O)[C@H]([C@@H](C)CC)NC(=O)[C@H](CC(C)C)N(C)C(=O)C[C@@H](C(=O)N(C)C)N(C)C(=O)[C@H](C2CCCC2)N(C)C(=O)C2(CCC2)NC(=O)[C@@H]2CC(F)(F)CN2C(=O)[C@H](CCc2ccc(C(F)(F)F)c(Cl)c2)NC(=O)CN(C)C(=O)[C@@H]1Cc1ccc(C(F)(F)F)cc1 [PP0432] ([NMeL]I[Aze][Sar][NPrPhe(4-CF3)][Sar][hPhe(3-Cl-4-CF3)][Pro(4,4-F2)][Ac4c][NMeGly(cPent)][NMeD]-NMe2; lactam N-11) | – | – | NRAS/KRAS (ratio of KD value with respect to GDP-bound NRAS wild-type protein to KD value with respect to KRAS) ([1]; SPR): B (a compound having 3 or more and less than 10 is denoted as B); HRAS/KRAS (ratio of KD value with respect to GDP-bound HRAS wild-type protein to KD value with respect to KRAS) ([2]; SPR): B (a compound having 3 or more and less than 10 is denoted as B)
7 | CCO[C@@H]1C[C@H]2C(=O)NC3(CC=CC3)C(=O)N(C)[C@@H](C3CCCC3)C(=O)N(CC)[C@H](C(=O)N3CCOCC3)CC(=O)N(C)[C@@H](CC(C)C)C(=O)N[C@@H]([C@@H](C)CC)C(=O)N(C)CC(=O)N(C)[C@H]3CCCCCN(C3=O)[C@@H](Cc3ccc(C(F)(F)F)cc3)C(=O)N(C)CC(=O)N[C@@H](CCc3cc(F)c(C(F)(F)F)c(F)c3)C(=O)N2C1 [PP0956] | A (a compound having 10 or more and less than 20 is denoted as A) | A (a compound having 10 or more and less than 20 is denoted as A) | –
8 | CC[C@H](C)[C@@H]1NC(=O)[C@@H]2CCC/C=C/c3ccc(cc3)C[C@@H](C(=O)N(C)CC(=O)N[C@@H](CCc3ccc(Cl)c(Cl)c3)C(=O)N3C[C@H](OC(C)C)C[C@H]3C(=O)NC3(CC(C)(C)C3)C(=O)N(C)[C@@H](C3CCCC3)C(=O)N(C)[C@H](C(=O)N(C)CC)CC(=O)N2C)N2CC/C=C\C[C@@H](C2=O)N(C)C(=O)CN(C)C1=O [PP2595] | – | – | NRAS/KRAS (ratio of KD value with respect to GDP-bound NRAS wild-type protein to KD value with respect to KRAS) ([1]; class symbols): A (a compound having 10 or more and less than 20 is denoted as A); HRAS/KRAS (ratio of KD value with respect to GDP-bound HRAS wild-type protein to KD value with respect to KRAS) ([2]; class symbols): B (a compound having 3 or more and less than 10 is denoted as B)
9 | CCO[C@@H]1C[C@H]2C(=O)NC3(CCC3)C(=O)N(C)[C@@H](C3CCCC3)C(=O)N(C)[C@H](C(=O)N(C)C)CC(=O)N(C)[C@@H](Cc3cccc(F)c3)C(=O)N[C@@H]([C@@H](C)CC)C(=O)N(C)CC(=O)N(C)[C@H]3C/C=C\CCN(C3=O)[C@@H](Cc3ccc(C(F)(F)F)cc3)C(=O)N(C)CC(=O)N[C@@H](CCc3cc(F)c(C(F)(F)F)c(F)c3)C(=O)N2C1 [PP1126] | A (a compound having 10 or more and less than 20 is denoted as A) | A (a compound having 10 or more and less than 20 is denoted as A) | –
10 | CCCO[C@@H]1C[C@H]2C(=O)NC3(CC(C)(C)C3)C(=O)N(C)[C@@H](C3CCCC3)C(=O)N(C)[C@H](C(=O)N(C)C)CC(=O)N(C)[C@H]3CCCCc4ccc(cc4)C[C@@H](C(=O)N(C)CC(=O)N[C@@H](CCc4ccc(Cl)c(Cl)c4)C(=O)N2C1)N1CC/C=C\C[C@@H](C1=O)N(C)C(=O)CN(C)C(=O)[C@H]([C@@H](C)CC)NC3=O [PP3092] | – | – | NRAS/KRAS (ratio of KD value with respect to GDP-bound NRAS wild-type protein to KD value with respect to KRAS) [1, 3]: A (a compound having 10 or more and less than 20 is denoted as A); HRAS/KRAS (ratio of KD value with respect to GDP-bound HRAS wild-type protein to KD value with respect to KRAS) [2, 3]: A (a compound having 10 or more and less than 20 is denoted as A)
11 | CCO[C@@H]1C[C@H]2C(=O)NC3(CC(C)(C)C3)C(=O)N(C)[C@@H](C3CCCC3)C(=O)N(C)[C@H](C(=O)N(C)CC)CC(=O)N(C)[C@@H](CC)C(=O)N[C@@H]([C@@H](C)CC)C(=O)N(C)CC(=O)N(C)[C@H]3C/C=C\CCN(C3=O)[C@@H](Cc3ccc(C(F)(F)F)cc3)C(=O)N(C)CC(=O)N[C@@H](CCc3ccc(Cl)c(Cl)c3)C(=O)N2C1 [PP2822] | – | – | NRAS/KRAS (ratio of KD value with respect to GDP-bound NRAS wild-type protein to KD value with respect to KRAS) ([1]; class symbols): A (a compound having 10 or more and less than 20 is denoted as A); HRAS/KRAS (ratio of KD value with respect to GDP-bound HRAS wild-type protein to KD value with respect to KRAS) ([2]; class symbols): A (a compound having 10 or more and less than 20 is denoted as A)
12 | CCC[C@H]1C(=O)N[C@@H]([C@@H](C)CC)C(=O)N(C)CC(=O)N(C)[C@H]2C/C=C\CCN(C2=O)[C@@H](Cc2ccc(C(F)(F)F)cc2)C(=O)N(C)CC(=O)N[C@@H](CCc2ccc(C(F)(F)F)c(OC)c2)C(=O)N2C[C@@H](C)C[C@H]2C(=O)N(C)C2(CCC2)C(=O)N(C)[C@@H](C2CCCC2)C(=O)N(C)[C@H](C(=O)N(C)C)CC(=O)N1C [PP2358] | – | – | NRAS/KRAS (ratio of KD value with respect to NRAS to KD value with respect to KRAS) ([1]; SPR): A (a compound having 10 or more and less than 20 is denoted as A); HRAS/KRAS (ratio of KD value with respect to HRAS to KD value with respect to KRAS) ([2]; SPR): B (a compound having 3 or more and less than 10 is denoted as B)
13 | CCO[C@@H]1C[C@H]2C(=O)NC3(CCC3)C(=O)N(C)[C@@H](C3CCCC3)C(=O)N(C)[C@H](C(=O)N(C)C)CC(=O)N(C)[C@@H](CC)C(=O)N[C@@H]([C@@H](C)CC)C(=O)N(C)CC(=O)N(C)[C@H]3CC(C)=CCN(C3=O)[C@@H](Cc3ccc(C(F)(F)F)cc3)C(=O)N(C)CC(=O)N[C@@H](CCc3cc(F)c(C(F)(F)F)c(F)c3)C(=O)N2C1 [PP1034] | C (A compound having a KD ratio of 0.1 or more and less than 3 is denoted as C) | C (A compound having a KD ratio of 0.1 or more and less than 3 is denoted as C) | –
14 | CCO[C@@H]1C[C@H]2C(=O)NC3(CCC3)C(=O)N(C)[C@@H](C(CC)CC)C(=O)N(C)[C@H](C(=O)N3CCOCC3)CC(=O)N(C)[C@@H](CC(C)C)C(=O)N[C@@H]([C@@H](C)CC)C(=O)N(C)CC(=O)N(C)[C@H]3CCCCN(C3=O)[C@@H](Cc3ccc(C(F)(F)F)cc3)C(=O)N(C)CC(=O)N[C@@H](CCc3cc(F)c(C(F)(F)F)c(F)c3)C(=O)N2C1 [PP0811] | B (a compound having 3 or more and less than 10 is denoted as B) | B (a compound having 3 or more and less than 10 is denoted as B) | –
